Data from paper PMC9652372, “Glycolytic flux control by drugging phosphoglycolate phosphatase” (Nature Communications, 2022).
Several values for one entry are separate records, joined by “and”; a condition that tells them apart may be missing. Identical values can stand only once.

Test system: HT1080 cells
Test: NMR quantification of cellular metabolites; on 1-Methylnicotinamide (NMR metabolite level): unit not given here; on Acetic acid (NMR metabolite level): unit not given here; on Glutathione (NMR metabolite level): unit not given here; on Glycerol 3-phosphate (NMR metabolite level): unit not given here; on Glycine (NMR metabolite level): unit not given here; on L-Lactic acid (NMR metabolite level): unit not given here; on L-Lysine (NMR metabolite level): unit not given here; on L-Tyrosine (NMR metabolite level): unit not given here; on L-Valine (NMR metabolite level): unit not given here; on Phosphocreatine (NMR metabolite level): unit not given here; on Pyroglutamate (NMR metabolite level): unit not given here; on Taurine (NMR metabolite level): unit not given here; on Tryptophan (NMR metabolite level): unit not given here
Format: cell-based, human
Settings: Exp #1-5

SMILES: O=C(Nc1ccccc1C(=O)O)c1ccc(Oc2ccc(C(=O)Nc3ccccc3C(=O)O)cc2)cc1 [CP1]
- UDP-glucose (NMR metabolite level) (T3: 3h CP1-treated): 0.0008858 and 0.0008772 and 0.001067 and 0.000997 and 0.0009053
- myo-Inositol (NMR metabolite level) (T3: 3h CP1-treated): 0.01161 and 0.01092 and 0.01214 and 0.0158 and 0.01228
- 1-Methylnicotinamide (NMR metabolite level) (T24: 24h CP1-treated): 0.0006688 and 0.0007226 and 0.00078 and 0.0009117 and 0.0008029
- 2-Hydroxyglutarate (NMR metabolite level) (T24: 24h CP1-treated): 0.01123 and 0.01613 and 0.01677 and 0.01849 and 0.01776
- ADP (NMR metabolite level) (T24: 24h CP1-treated): 0.0007644 and 0.000746 and 0.001198 and 0.0008611 and 0.0008531
- ATP (NMR metabolite level) (T24: 24h CP1-treated): 0.0006449 and 0.0006294 and 0.0008357 and 0.0006838 and 0.0006775
- Acetic acid (NMR metabolite level) (T24: 24h CP1-treated): 0.003416 and 0.003823 and 0.003426 and 0.003622 and 0.002835
- Choline (NMR metabolite level) (T24: 24h CP1-treated): 0.0001911 and 0.0002098 and 0.0002507 and 0.0002533 and 0.0003011
- Creatine (NMR metabolite level) (T24: 24h CP1-treated): 0.005637 and 0.005968 and 0.005822 and 0.005673 and 0.00685
- Dimethylamine (NMR metabolite level) (T24: 24h CP1-treated): 0.01722 and 0.009371 and 0.01178 and 0.009801 and 0.01006
- Fumaric acid (NMR metabolite level) (T24: 24h CP1-treated): 0.0003583 and 0.0003497 and 0.0003621 and 0.0004052 and 0.0003764
- Glutathione (NMR metabolite level) (T24: 24h CP1-treated): 0.00848 and 0.006947 and 0.009193 and 0.008991 and 0.00828
- Glycerol 3-phosphate (NMR metabolite level) (T24: 24h CP1-treated): 0.005316 and 0.003498 and 0.00363 and 0.003634 and 0.003759
- Glycerophosphocholine (NMR metabolite level) (T24: 24h CP1-treated): 0.0005972 and 0.0004662 and 0.000585 and 0.0005065 and 0.0006022
- Glycine (NMR metabolite level) (T24: 24h CP1-treated): 0.01727 and 0.01921 and 0.02014 and 0.02011 and 0.0205
- L-Alanine (NMR metabolite level) (T24: 24h CP1-treated): 0.006617 and 0.007063 and 0.007716 and 0.007015 and 0.00695
- L-Arginine (NMR metabolite level) (T24: 24h CP1-treated): 0.002054 and 0.001585 and 0.002006 and 0.001975 and 0.001807
- L-Aspartic acid (NMR metabolite level) (T24: 24h CP1-treated): 0.003296 and 0.003217 and 0.003844 and 0.003495 and 0.003463
- L-Glutamic acid (NMR metabolite level) (T24: 24h CP1-treated): 0.03982 and 0.04634 and 0.04538 and 0.047 and 0.04456
- L-Glutamine (NMR metabolite level) (T24: 24h CP1-treated): 0.05231 and 0.05105 and 0.05192 and 0.04586 and 0.05314
- L-Isoleucine (NMR metabolite level) (T24: 24h CP1-treated): 0.007907 and 0.007716 and 0.008078 and 0.007775 and 0.007703
- L-Lactic acid (NMR metabolite level) (T24: 24h CP1-treated): 0.08184 and 0.08616 and 0.0795 and 0.07679 and 0.07736
- L-Leucine (NMR metabolite level) (T24: 24h CP1-treated): 0.00676 and 0.006597 and 0.007883 and 0.007192 and 0.007251
- L-Lysine (NMR metabolite level) (T24: 24h CP1-treated): 0.002293 and 0.002238 and 0.002674 and 0.002431 and 0.002409
- L-Methionine (NMR metabolite level) (T24: 24h CP1-treated): 0.002389 and 0.002331 and 0.002786 and 0.00276 and 0.002509
- L-Phenylalanine (NMR metabolite level) (T24: 24h CP1-treated): 0.004013 and 0.003916 and 0.004123 and 0.003976 and 0.003889
- L-Threonine (NMR metabolite level) (T24: 24h CP1-treated): 0.01522 and 0.01471 and 0.01638 and 0.01537 and 0.01478
- L-Tyrosine (NMR metabolite level) (T24: 24h CP1-treated): 0.004491 and 0.004849 and 0.004652 and 0.004635 and 0.00424
- L-Valine (NMR metabolite level) (T24: 24h CP1-treated): 0.007668 and 0.007693 and 0.007744 and 0.00775 and 0.007678
- N,N-Dimethylformamide (NMR metabolite level) (T24: 24h CP1-treated): 0.0002389 and 0.0002331 and 0.0002786 and 0.0002533 and 0.0002509
- NAD+ (NMR metabolite level) (T24: 24h CP1-treated): 0.002341 and 0.002611 and 0.002619 and 0.002533 and 0.002635
- NADH (NMR metabolite level) (T24: 24h CP1-treated): 0.0002389 and 0.0002331 and 0.0003343 and 0.0002786 and 0.0002509
- Phosphocreatine (NMR metabolite level) (T24: 24h CP1-treated): 0.001027 and 0.001002 and 0.001198 and 0.001165 and 0.001179
- Phosphorylcholine (NMR metabolite level) (T24: 24h CP1-treated): 0.002054 and 0.002168 and 0.002256 and 0.002102 and 0.002158
- Pyroglutamate (NMR metabolite level) (T24: 24h CP1-treated): 0.005255 and 0.004942 and 0.004596 and 0.005597 and 0.005796
- Pyruvate (NMR metabolite level) (T24: 24h CP1-treated): 0.001983 and 0.001422 and 0.001532 and 0.001798 and 0.001932
- Serine (NMR metabolite level) (T24: 24h CP1-treated): 0.005566 and 0.004965 and 0.004429 and 0.005901 and 0.004792
- Taurine (NMR metabolite level) (T24: 24h CP1-treated): 0.00922 and 0.008998 and 0.009499 and 0.01099 and 0.01194
- Tryptophan (NMR metabolite level) (T24: 24h CP1-treated): 0.0007883 and 0.0007693 and 0.0007243 and 0.0007851 and 0.0008029
- UDP-N-Acetylglucosamine (NMR metabolite level) (T24: 24h CP1-treated): 0.003941 and 0.005105 and 0.006156 and 0.005242 and 0.005269
- UDP-glucose (NMR metabolite level) (T24: 24h CP1-treated): 0.001935 and 0.001888 and 0.002981 and 0.002533 and 0.002559
- myo-Inositol (NMR metabolite level) (T24: 24h CP1-treated): 0.007859 and 0.009021 and 0.01109 and 0.01281 and 0.00961
